Where a name gives a salt, the structure may show the parent alone.
Biological target: T1, human pancreatic lipase (hPL) (Homo sapiens, UniProt P16233)
T1 construct: gene PNLIP
T1 sequence (P16233 17-465): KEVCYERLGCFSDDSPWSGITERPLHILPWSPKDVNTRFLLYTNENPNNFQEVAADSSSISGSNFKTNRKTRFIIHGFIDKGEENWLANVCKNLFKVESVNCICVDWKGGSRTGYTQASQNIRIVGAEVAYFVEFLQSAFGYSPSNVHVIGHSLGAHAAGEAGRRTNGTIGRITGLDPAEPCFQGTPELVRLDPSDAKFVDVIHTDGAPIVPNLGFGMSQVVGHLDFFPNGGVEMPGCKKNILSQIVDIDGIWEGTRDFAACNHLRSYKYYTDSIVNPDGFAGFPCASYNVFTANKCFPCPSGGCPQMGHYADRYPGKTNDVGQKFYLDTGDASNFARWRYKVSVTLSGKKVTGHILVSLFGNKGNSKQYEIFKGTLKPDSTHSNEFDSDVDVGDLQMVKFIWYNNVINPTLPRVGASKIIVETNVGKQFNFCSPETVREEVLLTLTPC
Settings: 10 µM; inhibitor
Protocol: First, we evaluated the inhibitory effect of 94 natural products derived from herbs and 94 drugs on hPL. In our high-throughput screening system, 1 ug/mL hPL was used, and the final concentration of the 94 natural products derived from herbs and 94 drugs used was 10 μM. Other conditions were the same as in the selectivity experiments. […] RLE was incubated with hPL and various enzymes, such as hCES1A, hCES2A, CA, AchE, BchE, 5-HKE, lysozyme, trypsin, thrombin, α-CT, FAP, PREP, pepsin, α-amylase, plasmin, notum and hSA, in a 100 µL incubation mixture consisting of Tris-HCl (pH = 7.4, 25 mM), NaCl (150 mM), CaCl2 (1 mM) and porcine bile salt (0.1 mg/mL) at a concentration of 1.5 µg/mL. The reaction was initiated by adding RLE to the preincubated enzyme mixture at 37 °C, and metabolite formation was determined by measuring the fluorescence intensity of resorufin at 590 nm. In addition, several amino acids (IIe, His, Trp, Val, Leu, Tyr, Ala, Thr, Pro, Asp, Lys, Met, Cys, Ser, Phe, Gly, Glu and Gln), ions (Ni^2+, Ca^2+, Na^+, K^+, Cu^2+, Zn^2+, Mg^2+, NH4^+, Cu^+, Fe^2+ and CN^-) and GSH were measured. The concentration of these interfering factors was 5 μM. […] In this case, a visual high-throughput assay was established to screen hPL inhibitors, using RLE as a fluorogenic substrate in a 96-well microplate.

SMILES | % of control remaining [%]
COc1cc(-c2oc3cc(O)cc(O)c3c(=O)c2O[C@@H]2O[C@H](CO)[C@@H](O)[C@H](O)[C@H]2O)ccc1O [Isorhamnetin-3-glucoside] | 93.93
COc1c2ccoc2cc2oc(=O)ccc12 [Bergapten] | 54.11
O=C(O)/C=C/c1ccc(O)c(O)c1 [Caffeic acid] | 71.45
C[C@]12C=CC(=O)C=C1CC[C@@H]1[C@@H]2[C@@H](O)C[C@@]2(C)[C@H]1CC[C@]2(O)C(=O)CO [Prednisolone] | 82.34
C[C@@H]1C(=O)O[C@H]2C[C@@]34[C@H]5C[C@@H](C(C)(C)C)[C@]36[C@@H](OC(=O)[C@@H]6O)O[C@@]4(C(=O)O5)[C@]21O [Ginkgolide A] | 125.97
CN(C)CCCN1c2ccccc2CCc2ccccc21 [Imipramine hydrochloride] | 92.51
COc1ccc2cc3[n+](cc2c1O)CCc1cc2c(cc1-3)OCO2 [Berberrubine] | 86.09
Cc1nc(Nc2ncc(C(=O)Nc3c(C)cccc3Cl)s2)cc(N2CCN(CCO)CC2)n1 [Dasatinib] | 91.97
COc1ccc(CCC(=O)c2ccc(O)cc2)c(OC)c1 [Loureirin A] | 67.52
COCCOC(=O)C1=C(C)NC(C)=C(C(=O)OC(C)C)C1c1cccc([N+](=O)[O-])c1 (stereo not drawn) [Nimodipine] | 98.69
COc1cc(O)cc2c1C(=O)C[C@@H](c1ccccc1)O2 [Alpinetin] | 107.78
Cc1ncc([N+](=O)[O-])n1CCO [Metronidazole] | 78.49
O=C1c2c(O)cc(O)cc2O[C@H](c2ccc(O)c(O)c2)[C@H]1O [TGaxifolin] | 97.17
CC[C@H]1CN2CC[C@@]3(C(=O)Nc4ccccc43)[C@@H]2C[C@@H]1/C(=C\OC)C(=O)OC [Isorhynchophylline] | 87.99
CCc1cc(C(N)=S)ccn1 [Ethionamide] | 91.71
O=C(/C=C/c1ccccc1)OCc1ccccc1 [Benzyl cinnamate] | 74.62
CN(C)C(=O)Oc1cc(OC(=O)N(C)C)cc(C(O)CNC(C)(C)C)c1 (stereo not drawn) [Bambuterol hydrochloride] | 93.23
COc1ccc2c(c1)[C@]13CCCC[C@@H]1[C@H](C2)N(C)CC3 [Dextromethorphan] | 89.61
C=C[C@H]1CN2CC[C@H]1C[C@@H]2[C@@H](O)c1ccnc2ccc(OC)cc12 [Quinidine] | 100.77
O=C(Cc1ccccc1F)C1CC1 [Cyclopropyl 2-fluorobenzyl ketone] | 117.10
C[C@@H]1O[C@@H](Oc2c(-c3cc(O)c(O)c(O)c3)oc3cc(O)cc(O)c3c2=O)[C@H](O)[C@H](O)[C@H]1O [Myricitrin] | 91.12
Cc1cc(NS(=O)(=O)c2ccc(N)cc2)no1 [Sulfamethoxazole] | 98.83
COc1c(/C=C/C(=O)c2ccc(O)cc2)ccc(O)c1O [Licochalcone B] | 58.04
NS(=O)(=O)c1cc(C(=O)O)c(NCc2ccco2)cc1Cl [Furosemide] | 100.00
C[C@]12CCC(=O)C=C1CC[C@@H]1[C@@H]2[C@@H](O)C[C@@]2(C)[C@H]1CC[C@]2(O)C(=O)CO [Hydrocortisone] | 56.27
C[C@@H]1C(=O)O[C@H]2[C@H](O)[C@@]34O[C@@H]5OC(=O)[C@H](O)[C@@]56[C@H](C(C)(C)C)[C@H](O)C(OC3=O)[C@]64[C@@]12O (stereo partly drawn) [Ginkgolide C] | 106.22
NC(=O)N1c2ccccc2C=Cc2ccccc21 [Carbamazepine] | 104.15

SMILES | % of control remaining [%]
Cc1coc2c1CCC(C)C2 (stereo not drawn) [Menthofuran] | 108.33
C[C@@H]1CC[C@@]2(NC1)O[C@H]1C[C@H]3[C@@H]4CC=C5C[C@@H](O[C@@H]6O[C@H](CO)[C@@H](O[C@@H]7O[C@@H](C)[C@H](O)[C@@H](O)[C@H]7O)[C@H](O)[C@H]6O)CC[C@]5(C)[C@H]4CC[C@]3(C)[C@H]1[C@@H]2C [Khasianine] | 102.50
COc1c(/C=C/C(=O)c2ccc(O)c(CC=C(C)C)c2)ccc(O)c1O [Licochalcone D] | 80.45
CC(C)CCC[C@@H](C)[C@H]1CC[C@H]2[C@@H]3CCC4=CC(=O)CC[C@]4(C)[C@H]3CC[C@]12C [4-Cholesten-3-one] | 77.59
CN[C@H](CC(C)C)C(=O)N[C@H]1C(=O)N[C@@H](CC(N)=O)C(=O)N[C@H]2C(=O)N[C@H]3C(=O)N[C@H](C(=O)N[C@H](C(=O)O)c4cc(O)cc(O)c4-c4cc3ccc4O)[C@H](O)c3ccc(c(Cl)c3)Oc3cc2cc(c3O[C@@H]2O[C@H](CO)[C@@H](O)[C@H](O)[C@H]2O[C@H]2C[C@](C)(N)[C@H](O)[C@H](C)O2)Oc2ccc(cc2Cl)[C@H]1O [Vancomycin] | 96.04
CN1CCN(C2=Nc3cc(Cl)ccc3Nc3ccccc32)CC1 [Clozapine] | 97.86
CCN(CC)CCNC(=O)c1cc(S(C)(=O)=O)ccc1OC [Tiapride] | 108.20
COc1cc(O)c2c(=O)cc(-c3ccc(OC)c(-c4c(O)cc(O)c5c(=O)cc(-c6ccc(O)cc6)oc45)c3)oc2c1 [Ginkgetin] | 39.42
C=CC(=O)Nc1cc(Nc2nccc(-c3cn(C)c4ccccc34)n2)c(OC)cc1N(C)CCN(C)C [AZD-9291] | 92.69
CCC(C)(C)C(=O)O[C@H]1C[C@@H](C)C=C2C=C[C@H](C)[C@H](CC[C@@H]3C[C@@H](O)CC(=O)O3)[C@H]21 [Simvastatin] | 84.18
O=C1C[C@@H](c2ccc(O[C@@H]3O[C@H](CO)[C@@H](O)[C@H](O)[C@H]3O)cc2)Oc2cc(O)ccc21 [Liquiritin] | 105.77
CC1(C)O[C@H]2CC(=O)OC[C@]23[C@H]2CC[C@@]4(C)[C@H](c5ccoc5)OC(=O)[C@H]5O[C@]54[C@]2(C)C(=O)C[C@@H]13 [Limonin] | 85.30
COc1cc2c3cc1Oc1c(OC)c(OC)cc4c1[C@@H](Cc1cccc(c1)Oc1ccc(c(O)c1)C[C@@H]3N(C)CC2)N(C)CC4 [Berbamine Hydrochloride] | 69.86
CC(C)(O/N=C(\C(=O)N[C@@H]1C(=O)N2C(C(=O)[O-])=C(C[n+]3ccccc3)CS[C@H]12)c1csc(N)n1)C(=O)O [CeftazidiMe] | 118.41
COc1c(O)c(O)cc2oc(-c3ccc(O)c(O)c3)c(O)c(=O)c12 [g2, 2-(3,4-Dihydroxyphenyl)-3,6,7-trihydroxy-5-methoxy-4H-1-benzopyran-4-one] | 59.87
CN(C/C=C/C#CC(C)(C)C)Cc1cccc2ccccc12 [Terbinafine Hydrochloride] | 91.01
COC(=O)[C@H]1[C@H]2C[C@@H]3c4[nH]c5cc(OC)ccc5c4CCN3C[C@H]2C[C@@H](OC(=O)c2cc(OC)c(OC)c(OC)c2)[C@@H]1OC [Reserpine] | 94.24
O=c1cc(-c2ccc(O)c(O)c2)oc2c([C@@H]3O[C@H](CO)[C@@H](O)[C@H](O)[C@H]3O)c(O)cc(O)c12 [Orientin] | 76.06
Cc1ncc2n1-c1ccc(Cl)cc1C(c1ccccc1F)=NC2 [Midazolam] | 96.73
C=C1CC[C@@H]2[C@](C)(CO)[C@H](O)CC[C@@]2(C)[C@@H]1C/C=C1/C(=O)OC[C@H]1O [Andrographolide] | 70.38
C=C1C(=O)[C@]23[C@H](O)[C@H]1CC[C@H]2[C@@]12CO[C@]3(O)[C@@H](O)[C@@H]1C(C)(C)CC[C@@H]2O [Oridonin] | 66.82
CC1=C(C(=O)O)N2C(=O)[C@@H](NC(=O)[C@H](N)c3ccccc3)[C@H]2SC1 [Cephalexin] | 109.58
COc1c(OC)c2occc2c2oc(=O)ccc12 [Pimpinellin] | 61.25
COc1cc2c(cc1OC)-c1cc3ccc(OC)c(OC)c3c[n+]1CC2 [Palmatine chloride] | 87.01
O=c1c(O[C@@H]2O[C@H](CO)[C@@H](O)[C@H](O)[C@H]2O)c(-c2ccc(O)cc2)oc2cc(O)cc(O)c12 [Astragalin] | 107.88
COc1cc(O)c(CC=C(C)C)c(O)c1C(=O)/C=C/c1ccc(O)cc1 [Xanthohumol] | 81.19
CC[C@H](C)C(=O)O[C@H]1C[C@@H](C)C=C2C=C[C@H](C)[C@H](CC[C@@H]3C[C@@H](O)CC(=O)O3)[C@H]21 [Lovastatin] | 80.96
